Laboratory results published in ChEMBL document CHEMBL1155618, “Junceellolides E-G, new briarane diterpenes from the West Pacific Ocean gorgonian Junceella fragilis” (J Nat Prod, 2000).
Calls of active or inactive are those of the source.

What was measured:
Type in all cases: functional, cell-based
P388 = test: Cytotoxicity against mouse P388 cells
A549 = test: Cytotoxicity against human A549 cells
HT-29 = test: Cytotoxicity against human HT29 cells

Measured: Activity

CC(=O)O[C@@H]1[C@@H]2[C@@](C)([C@H](O)CC/C(C)=C\[C@@H]3OC(=O)[C@H](C)[C@]31O)[C@@H](O)CC[C@]2(C)O
inactive: P388 | A549 | HT-29

CCC(=O)O[C@@H]1CC/C(C)=C\[C@@H]2OC(=O)[C@H](C)[C@@]2(O)[C@H](OC(C)=O)[C@H]2[C@]3(CC[C@H](OC(C)=O)[C@]12C)CO3
inactive: P388 | A549 | HT-29

C=C1CC[C@H](OC(C)=O)[C@@]2(C)[C@H]1[C@@H](OC(C)=O)[C@@]1(O)[C@H](/C=C(/C)CC[C@H]2OC(=O)CC)OC(=O)[C@@H]1C
inactive: P388 | A549 | HT-29

C=C1CC[C@H](OC(C)=O)[C@@]2(C)[C@H]1[C@@H](OC(C)=O)[C@@]1(O)[C@H](/C=C(/C)CC[C@H]2OC(C)=O)OC(=O)[C@@H]1C
inactive: P388 | A549 | HT-29
